Laboratory results reported in PubChem BioAssay (NCI).
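Growth conditions: 96-well plates. Treatment: test compound, 48 hours, 5 concentrations. Analysis: linear interpolation between bracketing concentrations; unreached endpoints set to highest concentration. TGI is the concentration that stops growth completely.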

What was measured:
Assay in all cases: NCI-60 cell line screen, 48 h
[1] = test system: A498 renal
[2] = test system: BT-549 breast
[3] = test system: DU-145 prostate
[4] = test system: HT29 colon
[5] = test system: LOX IMVI melanoma
[6] = test system: NCI/ADR-RES ovarian
[7] = test system: PC-3 prostate
[8] = test system: T-47D breast
[9] = test system: U251 CNS
[10] = test system: SK-MEL-28 melanoma

SMILES	TGI [1] [µM]	TGI [2] [µM]	TGI [3] [µM]	TGI [4] [µM]	TGI [5] [µM]	TGI [6] [µM]	TGI [7] [µM]	TGI [8] [µM]	TGI [9] [µM]	TGI [10] [µM]
CC(=O)Nc1ncc2c(n1)-c1ccccc1OC2	> 100	> 100	> 100	> 100	> 100	> 100	> 100	> 100	> 100	
COC(=O)c1cc2c3c(c(C(C)=O)c(OC)c2[nH]1)NCC3	> 50	> 50	> 50	> 50	> 50	> 50	> 50	> 50	> 50	
Cc1nn(C(=O)c2ccccc2O)c2c1C(c1ccc(O)cc1)SC(N)=N2 (configuration not stated)	> 10	> 10	> 10	> 10	> 10	> 10	> 10	9.72	> 10	> 10
BrCC[P+](c1ccccc1)(c1ccccc1)c1ccccc1	41.3	39.6	19.8	30.2	17.6	27.5	17.3	5.17	13.2	19.5
COc1cc(O)c2c(c1)C(O)C(O)CC1OC1C(=O)/C=C/CC(C)OC2=O (configuration not stated)	27.3	6.1	> 72.2	10	16.2	30.3	24.9	30.4	25	12
O=C(O)c1ccccc1-c1ccccc1C(=O)c1ccccc1	> 100	> 100	> 100	> 100	> 100	> 100	> 100	> 100	> 100	> 100
COc1ccc(C[C@H]2COC(=O)[C@@H]2Cc2cc(OC)c(OC)c(OC)c2)cc1OC		> 100	> 100	> 100	> 100	> 100	> 100	> 65.2	> 100	> 100
CNC(=O)OCC1=C(COC(=O)NC)CN(c2ccccc2)C1	> 100	> 100	> 100	> 100	> 100	> 100	> 100	> 100	> 100	> 100
Cc1cc(S(=O)(=O)NC(=NCC(=O)NN)NN)c(S)cc1Cl	> 10	> 10	> 10	> 10	> 10	> 10	> 10	> 10	> 10	> 10
CCCCCCCC(CC(=O)O)OC(=O)CC(CCCCCCC)OC1OC(C)C(O)C(O)C1OC1OC(C)C(O)C(O)C1O (configuration not stated)	> 100	> 100	> 100	> 100	> 100	> 100	> 100	> 100	> 100	> 100
O=C(Nc1ccccc1)N1N=C(c2ccccc2)C1c1ccccc1 (configuration not stated)	42.7	64.4	> 100	39.8	89.6	82.2	35.3	> 100	> 100	> 100
